Data: US6492353B1, “1,3-dihydroxy-20,20-cycloalkyl-vitamin D3analogs” (Syntex LLC, priority 1997, dated 2002)
Values joined by “and” are separate entries in the source; they are usually repeats but may differ in a detail not shown here. Identical values can stand only once.

What was measured:
[1] = system: ZR-75 cells; assay: Cell proliferation assay in ZR-75 breast cancer cells (MTT); assay type: cell-based; details: Homo sapiens, ZR75, 240 h, ZR-75, 10 days of culture with analog, read-out: IC50, concentration corresponding to half-maximal reduction in 570 nm absorbance
Description: ZR-75 cells are human mammary carcinoma cells that are positive for estrogen receptors. The potential activity of vitamin D3 analogs against breast cancer was assessed from inhibition of proliferation of ZR-75 cells in culture.
ZR-75 cells were plated at 12,500 cells/well in 24-well plates and incubated at 37° C. in 5% CO2/95% air in RPMI medium containing 10% fetal bovine serum and 2 mM L-glutamine. Stock solutions of vitamin D3 analogs were prepared at a concentration of 10 mM in absolute ethanol and stored at −20° C. under argon. One day after plating, ZR-75 cells were refed with either control medium or medium containing varying concentrations of the vitamin D3 analog.

[2] = system: rats with secondary hyperparathyroidism due to renal failure; assay: Secondary hyperparathyroidism in the rat renal insufficiency model (7/8 nephrectomy); assay type: in vivo; details: 7/8 nephrectomized rats, 0.1 μg/kg/day oral, seven days; for PTH T=1-T=0: change in serum PTH; for Final Ca Levels: serum calcium
Description: Female sprague Dawley rats were anesthetized, their right kidney removed and 2-3 branches of the left renal artery were ligated to achieve 7/8 nephrectomy. They were placed on a high phosphorous diet (0.06% Ca and 0.08 phosphorous). Approximately 3-6 weeks after surgery, rats were bled to screen serum PTH levels and rats with PTH levels between 100-500 pg/ml were selected for the study.
There was a pre-bleed (T=0) and each group was dosed daily for seven days by oral […] with either the compound of Formula (I) (0.1 μg/kg/day), vehicle control or 1,25-(OH)2 vitamin D3 positive control. Compounds were predissolved in ethanol and diluted with vehicle (Miglyol 812) followed by evaporation of the ethanol.
After the last day of dosing, the animals were bled again (T=1) and sacrificed. Serum PTH assays were done with Nichols Institute Diagnostic Kit #40-2240. Serum calcium assays were done with Sigma Diagnostic Kit #587 with o-cresophthalein. Serum creatinine assays were done with Sigma Diagnostic Kit #1600-320 with ammonium molybdate.

[3] = system: women with postmenopausal osteoporosis; details: cited from earlier work
[4] = system: ovariectomized (Ovx) rats; assay: Bone anabolism in the ovariectomized rat; assay type: in vivo; design: Urine Calcium/Creatinine (6th Week): unit not given here; details: for Whole Femur BMD: weeks 3-6 post-ovariectomy
From the text: Three month old rats are ovariectomized (Ovx) and administered either 1,25-dihydroxy vitamin D3 (vit. D in Table) or one of the compounds of the present invention once a day by mouth starting at 3 weeks post-ovariectomy and continuing until final sacrifice at 6 weeks postovariectomy. Control groups, both sham (rats that were not ovariectomized) and Ovx, received vehicle only. Blood and urine samples were collected twice, at 4 weeks post-ovariectomy and again at the 6 week mark and the amount of serum and urine calcium was determined. The final femoral calcium was determined upon sacrifice 6 weeks post-ovariectomy.
The bone mineral density of the right femur was determined by using a High Resolution Software Package on a QDR-1000W Bone Densitometer™ (Hologic, Walthan, Mass.). The animals were scanned by placing them on a scanning block in a supine position such that the right leg was perpendicular to the main body and the tibia was perpendicular to the femur. The increase in the bone mineral density and the amount of calcium in the urine and the serum for some of the compounds of this invention in this assay are given in the table below: […]

[5] = system: MCF-7 cells; assay: Cell proliferation assay in MCF-7 breast cancer cells; assay type: cell-based; details: Homo sapiens, MCF7, 168 h; MCF-7, 7 days of culture with analog, Coulter count; read-out: IC50, concentration causing 50% reduction in MCF-7 cell growth in culture
Description: MCF-7 cells are human mammary carcinoma cells that are positive for estrogen receptors. The potential activity of vitamin D3 analogs against breast cancer was assessed from inhibition of proliferation of MCF-7 cells in culture.
MCF-7 cells were plated at 9000 cells/well in 24-well plates and incubated at 37° C. in 5% CO2/95% air in Dulbecco's Modified Eagle Medium containing 10% fetal bovine serum, 700 nM insulin, 2 mM glutarnine, 0.1 mM MEM non-essential amino acids and 1 mM sodium pyruvate. Stock solutions of vitamin D3 analogs were prepared at a concentration of 10 mM in absolute ethanol and stored at −20° C. under argon. Four days after plating, the number of MCF-7 were counted by removing the medium in 8 wells, rinsing the cells with 0.5 ml PBS without Ca/Mg and then incubating the cells with 0.3 ml of trypsin-EDTA. After 15 min., the trypsinization was stopped by adding 0.3 ml of medium. 0.2 ml aliquot was transferred from each well into dilu-vials containing 10 ml isoton and the number of cells were counted on Coulter Counter™ (Coulter, Miami, Fla.).
MCF-7 cells in the remaining wells were refed with either control medium or medium containing varying concentrations of the vitamin D3 analog. After a further 7 days of culture, the number of MCF-7 cells in each well was assessed by removing the medium, rinsing the cells with 0.5 ml PBS without Ca/Mg and then incubating the cells with 0.5 ml of trypsin-EDTA for 15 min. The trypsinization was stopped by adding 0.5 ml of medium and 0.1 ml aliquot from each well was transferred into dilu-vials containing 10 ml isoton and the number of cells were counted on Coulter Counter™.

Compound | IC50 [1] | PTH T=1-T=0 [2] | Final Ca Levels [2] | IC50 [5] | further results
C=C1/C(=C\C=C2/CCC[C@]3(C)[C@@H]([C@H](C)CCCC(C)(C)O)CC[C@@H]23)C[C@@H](O)C[C@@H]1O [1,25-di(OH)-cholecalciferol, 1,25-dihydroxy-cholecalciferol, reference compound] | 13 nM | -18 pg/mL | 9.75 mg/dL | 149 nM | lower rate of new vertebral fractures compared with elemental calcium 1000 mg/day ([3]; mild to moderate postmenopausal osteoporosis, 0.25 microgram twice daily, after 3 years): 3 fold; tolerability ([3]; overall): well tolerated; steroid-induced bone loss ([3]; patients starting prednisone or prednisolone, 0.5 to 1.0 micrograms/day plus calcium 1000 mg/day, with or without calcitonin): prevented steroid-induced bone loss; Serum Calcium (6th Week) ([4]; 0.200 μg/kg/day by mouth, listed as Vit D): 9.49 mg/dL and 10.65 mg/dL
C=C1/C(=C\C=C2/CCC[C@]3(C)[C@@H](C4(CC#CC(O)(C(F)(F)F)C(F)(F)F)CC4)CC[C@@H]23)C[C@@H](O)C[C@@H]1O [Cpd #3, 1,25-dihydroxy-23-yne-26,27-hexafluoro-20,21,28-cyclopropyl-cholecalciferol] | 0.01 nM | -70 pg/mL | 10.7 mg/dL | 0.03 nM | Serum Calcium (6th Week) ([4]; 0.010 μg/kg/day by mouth): 10.25 mg/dL; Urine Calcium/Creatinine (6th Week) ([4]; 0.010 μg/kg/day by mouth): 0.83; Whole Femur BMD ([4]; 0.010 μg/kg/day by mouth): 0.24 g/cm²
C[C@]12CCC/C(=C\C=C3C[C@@H](O)C[C@H](O)C3)[C@@H]1CC[C@@H]2C1(CC#CC(O)(C(F)(F)F)C(F)(F)F)CC1 [Cpd #4, 1,25-dihydroxy-23-yne-26,27-hexafluoro-20,21,28-cyclopropyl-19-norcholecalciferol] | 0.15 nM | -137 pg/mL | 10.1 mg/dL | 0.05 nM | Serum Calcium (6th Week) ([4]; 0.005 μg/kg/day by mouth): 8.94 mg/dL; Urine Calcium/Creatinine (6th Week) ([4]; 0.005 μg/kg/day by mouth): 0.60; Whole Femur BMD ([4]; 0.005 μg/kg/day by mouth): 0.241 g/cm²
C=C1/C(=C\C=C2/CCC[C@]3(C)[C@@H](C4(CC#CC(C)(C)O)CC4)CC[C@@H]23)C[C@@H](O)C[C@@H]1O [compound 1, 1,25-dihydroxy-23-yne-20,21,28-cyclopropyl-cholecalciferol] |  |  |  | 0.5 nM | 
CC(C)(O)C#CCC1([C@H]2CC[C@H]3/C(=C/C=C4C[C@@H](O)C[C@H](O)C4)CCC[C@]23C)CC1 [compound 2, 1,25-dihydroxy-23-yne-20,21,28-cyclopropyl-19-nor-cholecalciferol] | 0.9 nM |  |  | 0.3 nM | 
C=C1/C(=C\C=C2/CCC[C@]3(C)[C@@H](C4(C/C=C\C(O)(C(F)(F)F)C(F)(F)F)CC4)CC[C@@H]23)C[C@@H](O)C[C@@H]1O [compound 5, 1,25-dihydroxy-23-(Z)-ene-26,27-hexafluoro-20,21,28-cyclopropyl-cholecalciferol] | 0.1 nM |  |  | 0.03 nM | 
C[C@]12CCC/C(=C\C=C3C[C@@H](O)C[C@H](O)C3)[C@@H]1CC[C@@H]2C1(C/C=C\C(O)(C(F)(F)F)C(F)(F)F)CC1 [compound 6, 1,25-dihydroxy-23-(Z)-ene-26,27-hexafluoro-20,21,28-cyclopropyl-19-norcholecalciferol] | 0.1 nM |  |  | 0.03 nM | 
